Drawing on PubChem BioAssay AID256 (DTP/NCI, 2004), this text covers T/C for 20 compounds.

The test concerns CD2F1 mice, L1210 leukemia ip, survival T/C. The test is described as follows: NCI In Vivo Anticancer Drug Screen. Data for tumor model L1210 Leukemia (intraperitoneal) in CD2F1 (CDF1) mice. The note with it: higher = longer survival. The essentials:
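Mice carrying a transplanted tumor received test compound or vehicle alone. The value is the measurement in the treated group divided by that in the vehicle-treated control group.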

Where [1] appears, read: endpoint: mean survival time, dose: 5.0 mg/kg/injection, schedule: Q01DX009 (ip), vehicle: saline.
Where [2] appears, read: endpoint: mean survival time, dose: 100.0 mg/kg/injection, schedule: Q01DX009 (ip), vehicle: saline with Tween-80.
Where [3] appears, read: endpoint: mean survival time, dose: 100.0 mg/kg/injection, schedule: Q04DX003 (ip), vehicle: saline with Tween-80.
Where [4] appears, read: endpoint: mean survival time, dose: 200.0 mg/kg/injection, schedule: Q01DX009 (ip), vehicle: saline with Tween-80.
[5] abbreviates: endpoint: mean survival time, dose: 200.0 mg/kg/injection, schedule: Q04DX003 (ip), vehicle: saline with Tween-80.
Where [6] appears, read: endpoint: mean survival time, dose: 400.0 mg/kg/injection, schedule: Q01DX009 (ip), vehicle: saline with Tween-80.
Setting [7] is: endpoint: mean survival time, dose: 400.0 mg/kg/injection, schedule: Q04DX003 (ip), vehicle: saline with Tween-80.
Setting [8] is: endpoint: mean survival time, dose: 100.0 mg/kg/injection, schedule: Q04DX002 (ip), vehicle: saline with Tween-80.
Where [9] appears, read: endpoint: mean survival time, dose: 400.0 mg/kg/injection, schedule: Q01DX001 (ip), vehicle: saline with Tween-80.
Where [10] appears, read: endpoint: mean survival time, dose: 100.0 mg/kg/injection, schedule: Q01DX001 (ip), vehicle: saline.
Where [11] appears, read: endpoint: mean survival time, dose: 100.0 mg/kg/injection, schedule: Q01DX001 (ip), vehicle: saline with Tween-80.
The mark [12] stands for this setting: endpoint: mean survival time, dose: 200.0 mg/kg/injection, schedule: Q01DX001 (ip), vehicle: saline with Tween-80.
Where [13] appears, read: endpoint: mean survival time, dose: 100.0 mg/kg/injection, schedule: Q04DX003 (ip), vehicle: saline.
Where [14] appears, read: endpoint: mean survival time, dose: 200.0 mg/kg/injection, schedule: Q04DX003 (ip), vehicle: saline.

Values joined by “and” are separate entries in the source; they are usually repeats but may differ in a detail not shown here. Identical values can stand only once. Toxic doses and inconclusive results are not listed.

Consider `C=CC(CN1CC1)OC(C)=O` (stereo not drawn), for which the T/C runs as follows: (endpoint: mean survival time, dose: 2.5 mg/kg/injection, schedule: Q03DX003 (ip), vehicle: saline) 107 % of control; (endpoint: mean survival time, dose: 2.5 mg/kg/injection, schedule: Q04DX003 (ip), vehicle: saline) 100 % of control; (endpoint: mean survival time, dose: 3.75 mg/kg/injection, schedule: Q01DX009 (ip), vehicle: saline) 159 % of control; (endpoint: mean survival time, dose: 5.0 mg/kg/injection, schedule: Q01DX007 (ip), vehicle: saline) 172 % of control; under setting [1], 160 % of control; (endpoint: mean survival time, dose: 5.0 mg/kg/injection, schedule: Q03DX003 (ip), vehicle: saline) 121 % of control. In addition, the T/C is, setting by setting: (endpoint: mean survival time, dose: 5.0 mg/kg/injection, schedule: Q04DX003 (ip), vehicle: saline) 111 % of control; (endpoint: mean survival time, dose: 7.5 mg/kg/injection, schedule: Q01DX009 (ip), vehicle: saline) 206 % of control and 249 % of control; (endpoint: mean survival time, dose: 10.0 mg/kg/injection, schedule: Q04DX003 (ip), vehicle: saline) 153 % of control; (endpoint: mean survival time, dose: 30.0 mg/kg/injection, schedule: Q01DX009 (ip), vehicle: saline) 91 % of control.
In the case of `CC(=O)Nc1ccc([N+](=O)[O-])cc1`, the T/C by setting is: under setting [2], 96 % of control; under setting [3], 90 % of control; under setting [4], 101 % of control; under setting [5], 98 % of control; under setting [6], 111 % of control; under setting [7], 98 % of control.
With `CC(C)(C)OC(=O)NCCCC(=O)O`, the T/C runs as follows: under setting [3], 93 % of control; under setting [5], 90 % of control.
Consider `CCCC(=O)Oc1ccc(/C=N/NC(N)=S)nc1`, for which the T/C under setting [2] is 182 % of control; the T/C under setting [8] was 115 % of control; the T/C (endpoint: mean survival time, dose: 178.0 mg/kg/injection, schedule: Q01DX001 (ip), vehicle: saline with Tween-80) is 116 % of control; the T/C (endpoint: mean survival time, dose: 178.0 mg/kg/injection, schedule: Q04DX003 (ip), vehicle: saline with Tween-80) was 118 % of control; the T/C under setting [4] is 119 % of control; the T/C (endpoint: mean survival time, dose: 266.0 mg/kg/injection, schedule: Q01DX001 (ip), vehicle: saline with Tween-80) is 113 % of control. Further, the T/C (endpoint: mean survival time, dose: 266.0 mg/kg/injection, schedule: Q04DX003 (ip), vehicle: saline with Tween-80) was 121 % of control; the T/C under setting [9] is 95 % of control; the T/C under setting [7] was 117 % of control; the T/C (endpoint: mean survival time, dose: 600.0 mg/kg/injection, schedule: Q01DX001 (ip), vehicle: saline with Tween-80) was 124 % of control; the T/C (endpoint: mean survival time, dose: 900.0 mg/kg/injection, schedule: Q01DX001 (ip), vehicle: saline with Tween-80) is 161 % of control; the T/C (endpoint: median survival time, dose: 36.0 mg/kg/injection, schedule: Q01DX005 (ip), vehicle: saline with Tween-80) was 151 % of control. Also, the T/C runs as follows: (endpoint: median survival time, dose: 50.0 mg/kg/injection, schedule: Q01DX009 (ip), vehicle: saline with Tween-80) 172 % of control; (endpoint: median survival time, dose: 60.0 mg/kg/injection, schedule: Q01DX005 (ip), vehicle: saline with Tween-80) 160 % of control; (endpoint: median survival time, dose: 100.0 mg/kg/injection, schedule: Q01DX005 (ip), vehicle: saline with Tween-80) 162 % of control; (endpoint: median survival time, dose: 100.0 mg/kg/injection, schedule: Q01DX009 (ip), vehicle: saline with Tween-80) 156 % of control and 247 % of control; (endpoint: median survival time, dose: 166.67 mg/kg/injection, schedule: Q01DX005 (ip), vehicle: saline with Tween-80) 112 % of control; (endpoint: median survival time, dose: 200.0 mg/kg/injection, schedule: Q01DX009 (ip), vehicle: saline with Tween-80) 164 % of control and 190 % of control. For the same compound, the T/C (endpoint: median survival time, dose: 400.0 mg/kg/injection, schedule: Q01DX009 (ip), vehicle: saline with Tween-80) was 113 % of control and 107 % of control.
`CC1(C)CC(=O)C(C)(C)C(=O)C1`: the T/C under setting [10] was 100 % of control.
Regarding `O=[N+]([O-])O.[In]`, the T/C is 93 % of control (endpoint: mean survival time, dose: 1.25 mg/kg/injection, schedule: Q01DX009 (ip), vehicle: saline); 96 % of control (endpoint: mean survival time, dose: 2.5 mg/kg/injection, schedule: Q01DX009 (ip), vehicle: saline); 95 % of control under setting [1]; 96 % of control (endpoint: mean survival time, dose: 10.0 mg/kg/injection, schedule: Q01DX009 (ip), vehicle: saline).
Consider `COC(=O)C12CCC(C)(C)CC1C1=CCC3C4(C)CCC(OC(C)=O)CC4CCC3(C)C1(C)CC2` (stereo not drawn), for which the T/C by setting is: under setting [11], 93 % of control; under setting [2], 100 % of control; under setting [12], 92 % of control; under setting [4], 100 % of control; under setting [9], 97 % of control; under setting [6], 109 % of control.
Regarding `Nc1cc2[nH]c(=O)c3ccccc3c2cc1Br`, the T/C reads like this: (endpoint: mean survival time, dose: 100.0 mg/kg/injection, schedule: Q01DX001 (ip), vehicle: carboxymethylcellulose (CMC)) 103 % of control; (endpoint: mean survival time, dose: 200.0 mg/kg/injection, schedule: Q01DX001 (ip), vehicle: carboxymethylcellulose (CMC)) 97 % of control; (endpoint: mean survival time, dose: 400.0 mg/kg/injection, schedule: Q01DX001 (ip), vehicle: carboxymethylcellulose (CMC)) 100 % of control.
For the compound `CCC(C)C(=O)c1ccccc1` (stereo not drawn), the T/C reads like this: (endpoint: mean survival time, dose: 50.0 mg/kg/injection, schedule: Q01DX001 (ip), vehicle: saline with Tween-80) 100 % of control; under setting [11], 95 % of control; under setting [12], 100 % of control.
Take `Cc1ccc(CNc2ccc(C)c(Cl)c2)cc1`: the T/C is, setting by setting: (endpoint: mean survival time, dose: 100.0 mg/kg/injection, schedule: Q04DX003 (ip), vehicle: other) 101 % of control; (endpoint: mean survival time, dose: 200.0 mg/kg/injection, schedule: Q04DX003 (ip), vehicle: other) 97 % of control; (endpoint: mean survival time, dose: 400.0 mg/kg/injection, schedule: Q04DX003 (ip), vehicle: other) 96 % of control.
Take `C=C(CC(=O)O)C(=O)O`: the T/C is 93 % of control under setting [3] and 98 % of control under setting [5].
Turning to `CCN(CC)CCCC(C)Nc1ccnc2cc(Cl)ccc12` (stereo not drawn), the T/C (endpoint: mean survival time, dose: 100.0 mg/kg/injection, schedule: Q04DX002 (ip), vehicle: saline) is 91 % of control.
For `O=C(Nc1cccc(C2=NCCN2)c1)c1ccc(C(=O)Nc2cccc(C3=NCCN3)c2)c(Cl)c1`, the T/C runs as follows: (endpoint: mean survival time, dose: 1.0 mg/kg/injection, schedule: Q01DX009 (ip), vehicle: saline) 95 % of control; (endpoint: mean survival time, dose: 2.0 mg/kg/injection, schedule: Q01DX009 (ip), vehicle: saline) 92 % of control; (endpoint: mean survival time, dose: 4.0 mg/kg/injection, schedule: Q01DX009 (ip), vehicle: saline) 98 % of control; (endpoint: mean survival time, dose: 8.0 mg/kg/injection, schedule: Q01DX009 (ip), vehicle: saline) 113 % of control.
As to `c1cncc(CCc2cccnc2)c1`, the T/C is 100 % of control under setting [13] and 100 % of control under setting [14].
For the compound `CC1C(=O)C(Br)CC2C1(C)CCC1C2(C)CCC2(C)C3CC(C)(C)CCC3(C)CCC12C` (stereo not drawn), the T/C is 97 % of control under setting [10]; 97 % of control (endpoint: mean survival time, dose: 200.0 mg/kg/injection, schedule: Q01DX001 (ip), vehicle: saline); 97 % of control (endpoint: mean survival time, dose: 400.0 mg/kg/injection, schedule: Q01DX001 (ip), vehicle: saline).
For `C=CCNC(=O)/C=C/C(=O)O`, the T/C reads like this: under setting [13], 97 % of control; under setting [14], 97 % of control; (endpoint: mean survival time, dose: 400.0 mg/kg/injection, schedule: Q04DX003 (ip), vehicle: saline) 103 % of control.
Consider `Cc1cc2oc(=O)cc(N3CCOCC3)c2c(=O)o1`, for which the T/C under setting [3] is 110 % of control and the T/C under setting [5] is 109 % of control.
With `COc1ccccc1F`, the T/C reads like this: (endpoint: mean survival time, dose: 10.0 mg/kg/injection, schedule: Q01DX009 (ip), vehicle: saline with Tween-80) 100 % of control; (endpoint: mean survival time, dose: 20.0 mg/kg/injection, schedule: Q01DX009 (ip), vehicle: saline with Tween-80) 102 % of control; (endpoint: mean survival time, dose: 40.0 mg/kg/injection, schedule: Q01DX009 (ip), vehicle: saline with Tween-80) 102 % of control.
Consider `CCCCCCCCCSCCOC(=S)N(C)C`, for which the T/C is 93 % of control under setting [8]; 93 % of control (endpoint: mean survival time, dose: 200.0 mg/kg/injection, schedule: Q04DX002 (ip), vehicle: saline with Tween-80); 93 % of control (endpoint: mean survival time, dose: 400.0 mg/kg/injection, schedule: Q04DX002 (ip), vehicle: saline with Tween-80).
Consider `CCCCC(=O)n1c(Cl)c(/C=N\NC(N)=S)c2ccccc21`, for which the T/C (endpoint: mean survival time, dose: 25.0 mg/kg/injection, schedule: Q04DX003 (ip), vehicle: saline with Tween-80) was 101 % of control; the T/C (endpoint: mean survival time, dose: 50.0 mg/kg/injection, schedule: Q04DX003 (ip), vehicle: saline with Tween-80) was 101 % of control; the T/C under setting [3] was 108 % of control.
